Data as given in PMC9939733 (The Journal of Biological Chemistry, 2023).
Positions count from the first letter of the chain named. “And” between values parts separate entries of the source, which are not always exact repeats. Equal values may be shown once.

Experiments:
R140Q IDH2 = target: T1, R140Q IDH2 (Homo sapiens, UniProt P48735, R140Q); experiment: Steady-state kinetics, absorbance assay; type: biochemical; conditions: 0.03 μM enzyme, 50 μM NADPH, 20 mM MgCl2, pH 8.0
T1 construct: made in house; host or cells: Sf21 insect cells (cell pellets prepared at Evotec)
T1 sequence (P48735 40-452 R140Q): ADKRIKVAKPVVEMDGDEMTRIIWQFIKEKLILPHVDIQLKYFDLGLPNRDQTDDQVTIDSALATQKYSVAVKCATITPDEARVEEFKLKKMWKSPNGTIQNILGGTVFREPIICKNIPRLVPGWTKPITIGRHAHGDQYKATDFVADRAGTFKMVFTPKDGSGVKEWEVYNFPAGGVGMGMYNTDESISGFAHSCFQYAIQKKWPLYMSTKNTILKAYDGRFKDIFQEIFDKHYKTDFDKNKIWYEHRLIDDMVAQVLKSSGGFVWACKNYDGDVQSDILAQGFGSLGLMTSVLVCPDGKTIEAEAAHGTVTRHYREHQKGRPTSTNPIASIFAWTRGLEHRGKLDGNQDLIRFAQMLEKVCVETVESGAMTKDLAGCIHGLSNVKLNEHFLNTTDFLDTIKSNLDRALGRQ
Experimental: (§1) Compounds were dispensed using a CyBio SDW-CW CyBi-Well Simultaneous Pipettor and assay started using a ThermoFisher Multidrop Combi reagent dispenser.
(§2) Reactions were performed as technical duplicates, and all assays were carried out in two independent duplicates.

R172K IDH2 = target: T2, R172K IDH2 (Homo sapiens, UniProt P48735, R172K); experiment: Steady-state kinetics, absorbance assay; type: biochemical; conditions: 0.03 μM enzyme, 50 μM NADPH, 20 mM MgCl2, pH 8.0
T2 construct: made in house; host or cells: Sf21 insect cells (cell pellets prepared at Evotec)
T2 sequence (P48735 40-452 R172K): T1 sequence (P48735 40-452 R140Q) with Q101R, R133K
Experimental: as §1, §2

R132C/S280F IDH1 = target: T3, R132C/S280F IDH1 (Homo sapiens, UniProt O75874, R132C/S280F); experiment: Steady-state kinetics, NADPH turnover assay; type: biochemical
T3 construct: made in house
Experimental: independent runs, each composed of technical duplicates (n = 2; mean ± SD); c) R132C/S280F IDH1 assays
monitoring NADPH turnover were performed as reported (3). […]

R132H IDH1 = R132H IDH1 (Homo sapiens, UniProt O75874, R132H); experiment: CPMG 1H NMR binding study; design: made in house; host or cells: Escherichia coli BL21(DE3) pLyS; conditions: 50 µM ligand, R132H IDH1 titrated, 10 mM CaCl2, pH 7.5
Experimental: Binding studies were performed at 298K in buffer (50 mM Tris-d11, pH 7.5, 10%v/v D2O, 10 mM CaCl2) using CPMG NMR spectroscopy ([56]) and a water suppression pulse sequence.
similar manner as does 2OG. 1H NMR (CPMG-edited (2), 700 MHz) binding studies of R132H IDH1 with (a)
2OG/2OG derivative. […] Red spectra: 50 µM
Assays were performed as described in the Experimental
Procedures Section by titrating a concentrated R132H IDH1 stock solution (1.4 mM) into a mixture containing
(1 picture or pasted object on this page, not shown here)

Sequence of R132H IDH1 (O75874 whole entry R132H): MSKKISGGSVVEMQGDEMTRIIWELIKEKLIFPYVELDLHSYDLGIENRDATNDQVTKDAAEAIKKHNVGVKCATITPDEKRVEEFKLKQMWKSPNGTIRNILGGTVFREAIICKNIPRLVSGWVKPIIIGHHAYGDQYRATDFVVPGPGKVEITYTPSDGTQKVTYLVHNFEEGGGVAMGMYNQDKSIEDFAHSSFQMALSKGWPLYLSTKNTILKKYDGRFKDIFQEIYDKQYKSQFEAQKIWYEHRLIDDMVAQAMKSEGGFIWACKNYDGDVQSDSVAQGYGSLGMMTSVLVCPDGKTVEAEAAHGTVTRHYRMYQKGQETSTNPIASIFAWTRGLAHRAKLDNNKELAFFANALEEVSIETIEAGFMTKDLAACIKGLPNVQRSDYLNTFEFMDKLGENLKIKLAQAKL
T3 sequence (O75874 whole entry R132C/S280F): as the sequence (O75874 whole entry R132H) above, with H132C, S280F counted along it

- Kmapp (R140Q IDH2): 5.1 ± 1.2 mM and ~5.1 mM
- kcatapp (R140Q IDH2): 0.49 ± 0.04 s⁻¹ and 0.5 to 0.7 s⁻¹
- Kmapp (R172K IDH2): 0.35 ± 0.04 mM
- kcatapp (R172K IDH2): 0.72 ± 0.04 s⁻¹ and 0.5 to 0.7 s⁻¹
- Kmapp (R132C/S280F IDH1): 0.04 ± 0.01 mM
- signal depletion (CPMG 1H NMR) (R132H IDH1): ~80%
SMILES: O=C(O)CCC(=O)C(=O)O [2OG, 2-oxoglutarate, reference compound]
